Reference: ChEMBL document CHEMBL1201862, “PubChem BioAssay data set” (2004)
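The compound was tested at five concentrations on cells cultured in 96-well plates, with a 48-hour exposure period. GI50 marks 50% less growth.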 Calls of active or inactive are those of the source. Cut-off read from the data, not from the text of the source: active = GI50 up to about 1.1 µM and inactive = higher.

Tests used:
Test in all cases: growth of human tumour cells (NCI), 48 h
[1] = test system: CAKI-1
[2] = test system: CCRF-CEM
[3] = test system: EKVX
[4] = test system: HCC 2998
[5] = test system: HL-60
[6] = test system: HT-29
[7] = test system: Hs-578T
[8] = test system: K562
[9] = test system: M14
[10] = test system: MCF7
[11] = test system: MDA-MB-435
[12] = test system: MDA-N
[13] = test system: NCI-H226
[14] = test system: PC-3
[15] = test system: RPMI-8226
[16] = test system: SF-539
[17] = test system: SK-MEL-28
[18] = test system: SK-OV-3
[19] = test system: SNB-19
[20] = test system: TK-10

Measured: GI50

O=C1c2ccccc2CCC1C(O)(C(F)(F)F)C(F)(F)F (centres undefined)
inactive: [1] > 100 µM | [2] > 100 µM | [3] > 100 µM | [4] 3.67 µM | [5] > 10 µM | [6] > 100 µM | [7] > 100 µM | [8] > 100 µM | [9] > 100 µM | [10] > 100 µM | [11] > 100 µM | [12] > 100 µM | [13] > 100 µM | [14] > 100 µM | [15] > 100 µM | [16] > 100 µM | [17] > 100 µM | [18] > 100 µM | [19] > 100 µM | [20] > 100 µM

CC(C)(O)C1COC2=C1C(=O)c1ccccc1C2=O (centres undefined)
inactive: [1] 60.7 µM | [2] 46.2 µM | [3] 32.3 µM | [4] > 100 µM | [5] 18.9 µM | [6] 44.4 µM | [7] 27 µM | [8] 35.2 µM | [9] 35.6 µM | [10] 20.3 µM | [11] 23.3 µM | [12] 18.6 µM | [13] 32.5 µM | [14] 31.6 µM | [15] 44.8 µM | [16] 43.6 µM | [17] 23.2 µM | [18] > 100 µM | [19] > 100 µM

Cc1nc2sc(CCl)nn2c(=O)c1Cl
inactive: [1] 11.2 µM | [2] 3.61 µM | [3] 11.1 µM | [4] 22 µM | [5] 13.1 µM | [6] 12.9 µM | [7] 19.1 µM | [8] 12.1 µM | [9] 12.1 µM | [10] 4.58 µM | [11] 4.95 µM | [12] 11.4 µM | [13] 14.9 µM | [14] 12.3 µM | [15] 5.62 µM | [16] 16.7 µM | [17] 12.8 µM | [18] 14.6 µM | [19] 16.3 µM | [20] 12.5 µM

CC1(C)CCC[C@@]2(C)C1CC[C@@]1(CO1)[C@@H]2/C=C\C(C=O)CC=O (some centres undefined)
inactive: [1] > 100 µM | [2] 17.3 µM | [3] > 100 µM | [4] > 100 µM | [5] 21.6 µM | [6] > 56.6 µM | [7] > 100 µM | [8] 26.5 µM | [9] > 100 µM | [10] > 100 µM | [11] > 100 µM | [12] > 87.9 µM | [13] > 100 µM | [14] > 70.3 µM | [15] 10.9 µM | [16] > 87.3 µM | [17] > 100 µM | [18] > 100 µM | [19] > 100 µM | [20] > 100 µM

CCNc1ncnc2sc(SCc3ccccc3)nc12
inactive: [1] 71.6 µM | [2] 33.9 µM | [3] 42 µM | [4] 81.1 µM | [5] 16.6 µM | [6] 58.1 µM | [7] > 100 µM | [8] 81.7 µM | [9] > 100 µM | [10] 79.6 µM | [11] > 100 µM | [12] > 100 µM | [13] > 100 µM | [14] 38.5 µM | [15] 43.3 µM | [16] > 100 µM | [17] > 100 µM | [18] > 100 µM | [19] > 100 µM | [20] 60.7 µM

Nc1ccc(C(=O)N/C(=C\c2cccc([N+](=O)[O-])c2)c2nc3c(O)nc(S)nc3[nH]2)cc1
inactive: [1] > 100 µM | [2] > 100 µM | [3] > 84.9 µM | [4] > 100 µM | [5] > 100 µM | [6] > 100 µM | [7] 29.9 µM | [8] > 100 µM | [9] > 100 µM | [10] > 93.8 µM | [11] > 100 µM | [12] > 100 µM | [13] > 51.8 µM | [14] > 100 µM | [15] > 100 µM | [16] 18.5 µM | [17] > 100 µM | [18] 22.8 µM | [19] 42 µM | [20] > 79.4 µM

O=C(CNC(=O)OCc1ccccc1)NCCCCC(NC(=O)OCc1ccccc1)C(=O)O (centres undefined)
inactive: [1] > 100 µM | [2] > 100 µM | [3] > 100 µM | [4] > 100 µM | [5] > 100 µM | [6] > 100 µM | [7] > 100 µM | [8] > 100 µM | [9] > 100 µM | [10] > 100 µM | [11] > 100 µM | [12] > 100 µM | [13] > 100 µM | [14] > 100 µM | [15] > 100 µM | [16] > 100 µM | [17] > 100 µM | [18] > 100 µM | [19] > 100 µM | [20] > 100 µM

N#CCCN(CCC#N)CCN(CCN(CCC#N)CCC#N)CCN(CCC#N)CCC#N
inactive: [1] > 100 µM | [3] > 100 µM | [4] > 100 µM | [5] > 100 µM | [6] > 100 µM | [7] > 100 µM | [8] > 100 µM | [9] > 100 µM | [10] > 100 µM | [11] > 100 µM | [12] > 100 µM | [13] > 100 µM | [14] > 100 µM | [15] > 100 µM | [16] > 100 µM | [17] > 100 µM | [18] > 100 µM | [19] > 100 µM | [20] > 100 µM

O=c1[nH]nc(Cc2ccccc2)n1/N=C/c1cccnc1
inactive: [1] 12.4 µM | [2] > 100 µM | [3] > 100 µM | [4] > 100 µM | [5] > 100 µM | [6] > 100 µM | [7] > 100 µM | [8] > 100 µM | [9] > 100 µM | [10] > 100 µM | [11] > 100 µM | [12] > 100 µM | [13] > 100 µM | [14] > 100 µM | [15] > 100 µM | [16] > 100 µM | [17] > 100 µM | [19] > 100 µM | [20] > 100 µM

C=C(C(=O)O)[C@@H]1C[C@@H](OC(C)=O)[C@]2(C)CC/C=C(\C)CCC[C@H](C)[C@H](O)[C@@H]1O2
inactive: [1] 71 µM | [2] 22.4 µM | [3] 45.5 µM | [4] > 100 µM | [5] 22.3 µM | [6] 47.3 µM | [7] 49.9 µM | [8] 75.2 µM | [9] 28.2 µM | [10] 26.7 µM | [11] 24.2 µM | [12] 24.5 µM | [13] 14.9 µM | [14] 39.7 µM | [15] 17 µM | [16] 18 µM | [17] 77.4 µM | [18] 34.5 µM | [20] 57.4 µM

Cn1c(=O)c2c(nc3sc4nc5ccccc5nc4n32)n(C)c1=O
inactive: [1] > 100 µM | [2] > 100 µM | [3] > 100 µM | [4] > 100 µM | [5] > 100 µM | [6] > 100 µM | [7] > 100 µM | [8] > 100 µM | [9] > 100 µM | [10] > 100 µM | [11] > 100 µM | [12] > 100 µM | [13] > 100 µM | [14] > 100 µM | [15] > 100 µM | [16] > 100 µM | [18] > 100 µM | [19] > 100 µM | [20] > 100 µM

CC(C)(C)c1c(C(C)(C)C)c(=O)c1=O
inactive: [1] > 100 µM | [2] > 100 µM | [3] > 100 µM | [4] > 100 µM | [5] > 100 µM | [6] > 100 µM | [7] > 100 µM | [8] > 100 µM | [9] > 100 µM | [10] > 100 µM | [11] > 100 µM | [12] > 100 µM | [13] > 100 µM | [14] > 100 µM | [15] > 100 µM | [16] > 100 µM | [17] > 100 µM | [18] > 100 µM | [19] > 100 µM | [20] > 100 µM

Nc1ncnc2c1nc(-c1ccccc1)n2C1OC(CO)C(O)C1O (centres undefined)
inactive: [1] > 100 µM | [3] > 100 µM | [4] > 100 µM | [5] > 100 µM | [6] > 100 µM | [7] > 100 µM | [8] > 100 µM | [9] > 100 µM | [10] > 100 µM | [11] > 100 µM | [12] > 100 µM | [13] > 100 µM | [14] > 100 µM | [15] > 100 µM | [16] > 100 µM | [17] > 100 µM | [18] > 100 µM | [19] > 100 µM | [20] > 100 µM

COc1ccc(-c2cc(=O)c3ccc(O)cc3o2)cc1OC
inactive: [1] 25.7 µM | [2] 25.8 µM | [3] 43.7 µM | [4] 46.9 µM | [5] 23.5 µM | [6] 41.8 µM | [7] 32.7 µM | [8] 30 µM | [9] 72.8 µM | [10] 25.8 µM | [11] 45.5 µM | [12] 47.6 µM | [13] > 100 µM | [14] 32.3 µM | [15] 22.8 µM | [16] 23.4 µM | [17] 71.9 µM | [18] 41.4 µM | [19] 35.6 µM | [20] 59.3 µM
